Source: US20070099912A1, “Pyrrolo[2,3-F] and [3,2-F]Isoquinolinone derivatives as 5-hydroxytryptamine-6 ligands” (Wyeth, priority 2005, published 2007)
Counter-ions that a name gives are not always drawn.

Legend:
[1] = target: human cloned 5-HT6 receptors (Homo sapiens, UniProt P50406)
human cloned 5-HT6 receptors, sequence (P50406 whole entry): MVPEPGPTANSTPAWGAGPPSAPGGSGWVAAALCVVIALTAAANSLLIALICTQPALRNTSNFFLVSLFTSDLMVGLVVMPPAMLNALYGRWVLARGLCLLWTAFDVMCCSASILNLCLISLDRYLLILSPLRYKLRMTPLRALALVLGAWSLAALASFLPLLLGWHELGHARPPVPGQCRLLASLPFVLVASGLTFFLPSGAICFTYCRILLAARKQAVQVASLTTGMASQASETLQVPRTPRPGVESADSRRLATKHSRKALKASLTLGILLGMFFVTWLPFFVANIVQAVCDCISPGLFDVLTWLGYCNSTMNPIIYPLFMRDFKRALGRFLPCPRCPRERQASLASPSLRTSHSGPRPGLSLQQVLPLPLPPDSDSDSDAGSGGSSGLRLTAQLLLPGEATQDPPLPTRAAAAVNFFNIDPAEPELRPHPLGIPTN

Row | melting point [°C] | Ki [1] [nM] | SMILES
1 | 153 to 154 | – | NCCn1ccc2ccc3c(=O)n(Cc4ccccc4)ccc3c21 (as salt: hydrochloride) [Example 7, 1-(2-Aminoethyl)-7-benzyl-1,7-dihydro-6H-pyrrolo[2,3-f]isoquinolin-6-one hydrochloride]
2 | 100 to 102 | – | CN(C)CCn1ccc2ccc3c(=O)n(Cc4ccccc4)ccc3c21 (as salt: hydrochloride) [Example 6, 7-Benzyl-1-[2-(dimethylamino)ethyl]-1.7-dihydro-6H-pyrrolo[2,3-f]isoquinolin-6-one hydrochloride]
3 | 221 to 223 | 379 | CN(C)CCn1ccc2c3ccn(Cc4ccc(F)cc4)c(=O)c3ccc21 [Example 14, 3-[2-(dimethylamino)ethyl]-7-(4-fluorobenzyl)-3,7-dihydro-6H-pyrrolo[3,2-f]isoquinolin-6-one]
4 | 203 to 205 | 426 | NCCn1ccc2c3ccn(Cc4ccc(F)cc4)c(=O)c3ccc21 [Example 13, 3-(2-aminoethyl)-7-(4-fluorobenzyl)-3,7-dihydro-6H-pyrrolo[3,2-f]isoquinolin-6-one]
5 | – | 388 | CN(C)CCn1ccc2ccc3c(=O)n(Cc4ccccc4)ccc3c21 [Example 6, 7-Benzyl-1-[2-(dimethylamino)ethyl]-1.7-dihydro-6H-pyrrolo[2,3-f]isoquinolin-6-one hydrochloride]
6 | 49 to 51 | – | CN(C)CCCn1ccc2c3ccn(Cc4ccc(F)cc4)c(=O)c3ccc21 [Example 16, 3-[3-(dimethylamino)propyl]-7-(4-fluorobenzyl)-3,7-dihydro-6H-pyrrolo[3,2-f]isoquinolin-6-one]
7 | – | 180 | NCCn1ccc2ccc3c(=O)n(Cc4ccccc4)ccc3c21 [Example 7, 1-(2-Aminoethyl)-7-benzyl-1,7-dihydro-6H-pyrrolo[2,3-f]isoquinolin-6-one hydrochloride]
8 | 229 to 231 | 507 | O=c1c2ccc3c(ccn3CCN3CCCC3)c2ccn1Cc1ccc(F)cc1 [Example 15, 7-(4-fluorobenzyl)-3-(2-pyrrolidin-1-ylethyl)-3,7-dihydro-6H-pyrrolo[3,2-f]isoquinolin-6-one]
